In PubChem BioAssay (NCI):
“And” between values parts separate entries of the source, which are not always exact repeats. Equal values may be shown once.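 Interpolation was linear, between the two tested concentrations surrounding the appropriate level; five concentrations were tested over 48 hours in 96-well plates. At the GI50, growth is halved. TGI denotes the concentration required for complete inhibition of growth.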

Tests used:
Assay in all cases: NCI-60 cell line screen, 48 h
EKVX NSCLC = test system: EKVX NSCLC
SK-MEL-28 melanoma = test system: SK-MEL-28 melanoma
SN12C renal = test system: SN12C renal
NCI-H23 lung = test system: NCI-H23 lung
ACHN renal = test system: ACHN renal
HT29 colon = test system: HT29 colon
SNB-19 CNS = test system: SNB-19 CNS
NCI-H522 lung = test system: NCI-H522 lung
RPMI-8226 leukemia = test system: RPMI-8226 leukemia
NCI/ADR-RES ovarian = test system: NCI/ADR-RES ovarian

SMILES	TGI (EKVX NSCLC)	TGI (SK-MEL-28 melanoma) [µM]	TGI (SN12C renal) [µM]	TGI (NCI-H23 lung) [µM]	TGI (ACHN renal) [µM]	TGI (HT29 colon) [µM]	TGI (SNB-19 CNS) [µM]	TGI (NCI-H522 lung) [µM]	TGI (RPMI-8226 leukemia) [µM]	TGI (NCI/ADR-RES ovarian) [µM]	GI50 (SK-MEL-28 melanoma) [µM]	GI50 (ACHN renal) [µM]	GI50 (NCI/ADR-RES ovarian) [µM]	GI50 (EKVX NSCLC)	GI50 (NCI-H522 lung)
C/C(=N/NC(N)=S)c1ccc2ccccc2c1	37.3 µM	> 100	> 100	> 100	> 100	72.4	> 100	41	–	–	–	–	–	–	–
Nc1nn2c(C(Br)Br)cc(C(Br)Br)nc2c1[N+](=O)[O-]	6.45 µM	2.88	–	4.61	2.1	3.28	3.05	0.248	1.72	> 34	–	–	–	–	–
COc1ccc(-c2cc(=O)c3cc4c(cc3[nH]2)OCO4)c(OC)c1OC	> 100 µM	> 100	> 100	> 100	> 100	> 100	> 100	> 100	> 100	–	–	–	–	–	–
c1ccc2c(c1)[nH]c1nc3cc(-c4ccc5nc6c(nc5c4)[nH]c4ccccc46)ccc3nc12	> 100 µM	> 100	> 100	> 100	> 100	> 100	> 100	78.4	> 100	–	–	–	–	–	–
CCCCCCCCCC[C@H](O)[C@H]1CC[C@H]([C@H]2CC[C@H]([C@H](O)CC[C@H](O)CCCCCCC[C@@H](O)CC3=C[C@H](C)OC3=O)O2)O1	> 100 µM	> 100	> 100	> 100	> 100	–	> 100	> 100	10.5	> 100	> 100	10	16.5	–	–
COc1cc2c(cc1OC)C1c3ccccc3CCN1CC2 (stereo not given)	> 100 µM	> 100	> 100	> 100	> 100	> 100	> 100	> 100	–	> 100	–	–	–	–	–
COc1ccc(CC(CO)NC(=O)OCc2ccccc2)cc1Oc1ccc(CC(CO)NC(=O)OCc2ccccc2)cc1 (stereo not given)	19.1 µM	54.9	39.3	33.8	–	23.6	51.8	18.4	30.9	–	–	–	–	–	–
N#Cc1c(-c2ccccc2)/c(=C\Nc2ccc(Cl)cc2)c(=O)n2c1nc1ccccc12	–	> 100	> 100	> 100	> 100	–	> 100	> 100	45.9	> 100	–	–	–	–	–
CN(C)C(CN)CC1=C(CC(CN)N(C)C)CCC1 (stereo not given)	> 100 µM	> 100	> 100	> 100	–	> 100	> 100	> 100	> 100	> 100	–	–	–	–	–
CCNC(=O)Nc1ccccn1	> 100 µM	> 100	> 100	> 100	> 100	> 100	> 100	> 100	–	–	–	–	–	–	–
CCC12C[N+]3([O-])CCc4c([nH]c5ccccc45)C(C(=O)OC)(c4cc5c(cc4OC)N(C)C4C(O)(C(=O)OC)C(OC(C)=O)C6(CC)C=CCN7CCC54C76)CC(C3)C1O2 (stereo not given)	18 µM	0.959	24.5	8.49	31.9	17.2	11.9	0.282	1.43	–	–	–	–	–	–
COC(=O)c1csnn1	> 100 µM	> 100	> 100	> 100	> 100	> 100	> 100	> 100	> 100	–	–	–	–	–	–
CC(=O)OC(C)c1cc2c(s1)C(=O)c1sccc1C2=O (stereo not given)	3.7 µM	3.64	2.26	0.546	–	6.18	2.82	3.34	4.78	5.08	–	–	–	–	–
NC(=O)C(=O)N/N=C1/c2ccccc2CC1C1(O)C(=O)Nc2c(Cl)cc(Cl)cc21 (stereo not given)	> 100 µM	> 100	> 100	> 100	> 100	> 100	> 100	> 100	> 100	–	–	–	–	–	–
COc1cccc(-c2cc(=O)c3c(C)cc(C)nc3[nH]2)c1	> 100 µM	> 100	> 100	> 38.4	> 100	–	> 100	11.5	6.09	> 100	–	–	–	–	–
CN(C)NC(=S)Nc1ccccc1Br	> 100 µM	> 100	–	> 100	> 100	> 100	> 100	> 100	> 100	> 100	–	–	–	–	–
CCOP(=O)(OCC)C1C(CO)OC(n2ccc(=O)[nH]c2=O)C1O (stereo not given)	> 100 µM	> 100	> 100	–	> 100	> 100	> 100	> 100	> 100	–	–	–	–	–	–
C=C(C)CCC(=O)[C@](C)(O)[C@H]1[C@H](O)C[C@@]2(C)[C@@H]3CCc4c(cc(OC5OC(CO)C(O)C(O)C5O)c(O)c4C)C3(C)C(=O)C[C@]12C (stereo not given in full)	> 100 µM	> 100	> 100	> 100	> 100	> 100	> 100	> 100	–	> 100	–	–	–	–	–
CC(C)=C[C@@H]1C[C@H](n2cc(C)c(=O)[nH]c2=O)ON1CCO	> 100 µM	> 100	> 100	–	> 100	> 100	> 100	> 100	> 100	> 100	–	–	–	–	–
COC(=O)NN(C(=O)OC)c1c(-c2ccccc2)nc(SC)n1N	> 100 µM	> 100	> 100	> 100	> 100	–	> 100	> 100	> 100	> 100	–	–	–	–	–
Nc1c2ccccc2nc2c1ccc1ncccc12	> 100 µM	> 100	> 100	75.6	41	> 100	> 100	38.3	–	89.1	–	–	–	–	–
CCOC(=O)C1=C(C(C)=O)CSC(c2ccccc2)=N1	> 100 µM	> 100	> 100	> 100	–	> 100	> 100	> 100	> 100	> 100	–	–	–	–	–
COC(=O)c1c(C)cccc1/C=C1/Cc2c(C)cccc2C1=O	> 100 µM	> 100	> 100	> 100	> 100	> 100	–	> 100	8.51	> 100	–	–	–	–	–
COc1cc(/C=C/C(=O)O)ccc1C(=O)O/C=C/c1ccccc1	> 100 µM	> 100	> 100	> 100	–	> 100	> 100	> 100	> 100	> 100	–	–	–	–	–

SMILES	TGI (EKVX NSCLC)	TGI (SK-MEL-28 melanoma) [µM]	TGI (SN12C renal) [µM]	TGI (NCI-H23 lung) [µM]	TGI (ACHN renal) [µM]	TGI (HT29 colon) [µM]	TGI (SNB-19 CNS) [µM]	TGI (NCI-H522 lung) [µM]	TGI (RPMI-8226 leukemia) [µM]	TGI (NCI/ADR-RES ovarian) [µM]	GI50 (SK-MEL-28 melanoma) [µM]	GI50 (ACHN renal) [µM]	GI50 (NCI/ADR-RES ovarian) [µM]	GI50 (EKVX NSCLC)	GI50 (NCI-H522 lung)
O=c1c2c([nH]c3cc4c(cc13)OCO4)-c1ccccc1CC2	> 100 µM	> 100	> 100	> 100	> 100	> 100	> 100	–	> 100	–	–	–	–	–	–
COc1cc2c(cc1OC)C(N(C)C)C(c1ccccc1)=C2Cl (stereo not given)	–	36	43.3	32.4	–	36.4	> 100	21.7	46.3	–	–	–	–	–	–
Cc1ccc(S(=O)(=O)Oc2cc(N)c3c(n2)CCC3)cc1	> 100 µM	> 100	> 100	> 100	> 100	> 100	> 100	–	> 100	> 100	–	–	–	–	–
O=C(CN1CCCCC1)CC(O)(C(F)(F)F)C(F)(F)F	> 100 µM	> 100	–	> 100	> 100	> 100	> 100	> 100	> 100	> 100	–	–	–	–	–
COC(=O)c1ccccc1/C=C1/Cc2ccccc2C1=O	> 100 µM	> 100	36.5	> 100	> 100	> 100	–	> 100	49.5	> 100	–	–	–	–	–
COc1cc(OCc2ccc3oc(=O)c(-c4ccccc4)nc3c2)cc(OC)c1OC	–	> 100	> 100	> 100	> 100	> 100	> 100	> 100	> 100	> 100	–	–	–	–	–
CN(C)c1ccc(-c2c(C#N)c(S)n(NS(=O)(=O)c3ccccc3)c(=O)c2C#N)cc1	> 100 µM	> 100	76.2	> 100	> 100	–	> 100	44.5	91	49.5	–	–	–	–	–
CC1(C)O[C@@H]2COC(=O)[C@@H]2O1	> 100 µM	> 100	> 100	> 100	> 100	> 100	> 100	> 100	–	> 100	–	–	–	–	–
CC(C)(C)N=c1n(C(C)(C)C)oc(=O)n1C(C)(C)C	> 100 µM	> 100	> 100	> 100	> 100	> 100	> 100	–	–	> 100	–	–	–	–	–
OC[C@@H](O)[C@H]1NC[C@@H](O)[C@H]1O	> 100 µM	> 100	> 100	> 100	> 100	> 100	> 100	> 100	> 100	–	–	–	–	–	–
CC(C)(C)C1=Cc2cc3cc(C(C)(C)C)[nH]c(=O)c3cc2S(=O)(=O)N1	44.1 µM	> 100	> 100	85.3	89.3	41.4	> 100	32.3	98.5	–	–	–	–	–	–
O=C1NCCCc2nonc21	> 100 µM	> 100	> 100	> 100	> 100	> 100	> 100	–	> 100	> 100	–	–	–	–	–
Cc1cc2c(C)cc(=O)[nH]c2cc1N	> 100 µM	> 100	> 100	> 100	> 100	> 100	> 100	–	> 100	> 100	–	–	–	–	–
CSC1CC2C(CC1(C)O)C2(C)C (stereo not given)	92.1 µM and > 100 µM	> 100	> 100	> 100	> 100	> 100	> 100	> 100	> 100	–	–	–	–	13.3 µM and > 100 µM	33.8 µM and > 100 µM
CCOC(=O)c1[nH]cc(C)c1-c1ccn(-c2ccccc2)c1	> 100 µM	> 100	> 100	> 100	> 100	> 100	–	71.2	–	> 100	–	–	–	–	–
C/C(=C\c1ccccc1)C(=O)CCN1CCOCC1	42.7 µM	35.4	32.8	32	–	35.7	> 62.1	22.3	20.6	50.5	–	–	–	–	–
CC(=O)OC[C@]1(C(=O)C(O)c2ccoc2)[C@H](C)CC[C@@]23COC(=O)C2=CCC[C@@H]31 (stereo not given in full)	> 10 µM	–	> 10	> 10	> 10	> 10	> 10	> 10	> 10	> 10	–	–	–	–	–
COc1ccc(/C(=N/O)c2ccccc2-c2nc3ccccc3c(=O)n2-c2ccc(S(=O)(=O)Nc3ncccn3)cc2)cc1C	> 31.6 µM	23	> 31.6	27.6	25.1	–	> 31.6	23.7	42.9	> 31.6	–	–	–	–	–
COc1cc(C2c3cc4c(cc3OC(NN=C(C)C)C2C)OCO4)cc(OC)c1O (stereo not given)	–	> 100	> 100	> 100	–	> 100	> 100	25.3	31.2	> 100	–	–	–	–	–
COc1cc(/C=C2\C(=O)N(C(=O)Cc3ccccc3)N=C2C)ccc1O	> 100 µM	> 100	> 100	> 100	> 100	–	> 100	> 100	> 100	–	–	–	–	–	–
COc1ccccc1NC(=O)CC(=O)N1N=C(C)C(N=Nc2ccc(S(N)(=O)=O)cc2)C1=O (stereo not given)	> 100 µM	> 100	> 100	> 100	> 100	> 100	> 100	> 100	> 100	–	–	–	–	–	–
COCOc1ccc(OC)cc1	> 100 µM	> 100	> 100	> 100	–	> 100	> 100	–	> 100	> 100	–	–	–	–	–
CCN(CC)CCOC(NC(C)=O)(c1ccccc1)c1ccccc1	> 100 µM	> 100	> 100	> 100	> 100	> 100	> 100	–	> 100	> 100	–	–	–	–	–
